From US12351580B2, “NLRP3 modulators” (Innate Tumor Immunity, Inc., priority 2017, dated 2025) come the findings set out here.

Structures are written as SMILES. Some results are limits rather than exact numbers.

In general, EC50 refers to the midpoint of the concentration-response curve. The low end stands for a more potent agent, the high end for a less potent agent.

The target of one assay is T1, TLR8 (Homo sapiens, UniProt Q9NR97).
T1 construct: host or cells: HEK-Blue cells (human HEK) co-expressing TLR8 and an NF-kB/AP1-inducible SEAP reporter
T1 sequence (Q9NR97 27-1041): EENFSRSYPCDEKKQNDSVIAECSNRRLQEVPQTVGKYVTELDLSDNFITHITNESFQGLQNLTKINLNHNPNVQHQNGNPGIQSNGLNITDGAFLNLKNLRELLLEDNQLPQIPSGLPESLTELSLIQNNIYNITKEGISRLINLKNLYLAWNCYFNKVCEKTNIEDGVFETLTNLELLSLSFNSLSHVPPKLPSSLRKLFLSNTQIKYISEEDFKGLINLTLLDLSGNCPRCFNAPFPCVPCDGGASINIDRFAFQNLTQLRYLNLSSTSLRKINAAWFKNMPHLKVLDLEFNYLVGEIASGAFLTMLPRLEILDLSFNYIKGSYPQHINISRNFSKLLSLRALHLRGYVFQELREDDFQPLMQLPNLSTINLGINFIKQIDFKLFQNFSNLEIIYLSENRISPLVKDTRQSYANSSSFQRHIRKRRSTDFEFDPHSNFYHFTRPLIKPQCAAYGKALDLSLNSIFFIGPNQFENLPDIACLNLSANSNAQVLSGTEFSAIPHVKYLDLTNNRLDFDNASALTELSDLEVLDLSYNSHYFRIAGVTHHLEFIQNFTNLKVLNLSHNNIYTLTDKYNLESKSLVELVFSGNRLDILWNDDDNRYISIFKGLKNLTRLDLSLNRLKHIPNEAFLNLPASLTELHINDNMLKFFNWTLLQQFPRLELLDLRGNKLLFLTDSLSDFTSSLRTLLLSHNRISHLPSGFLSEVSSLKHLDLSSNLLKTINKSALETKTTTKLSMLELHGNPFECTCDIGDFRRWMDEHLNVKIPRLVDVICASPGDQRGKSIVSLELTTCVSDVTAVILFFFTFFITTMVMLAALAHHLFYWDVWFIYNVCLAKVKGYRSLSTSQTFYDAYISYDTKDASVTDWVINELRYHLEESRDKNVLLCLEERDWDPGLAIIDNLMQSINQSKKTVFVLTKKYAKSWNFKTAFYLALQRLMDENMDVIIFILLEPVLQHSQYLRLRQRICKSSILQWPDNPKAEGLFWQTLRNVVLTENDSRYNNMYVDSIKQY
The assay can be described thus: In vitro human TLR8 binding reporter assay (HEK-Blue, NF-kB/AP1-inducible SEAP). Type of assay: cell-based. In a few lines: (§1)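 Reporter cells are plated at 15,000 per well and rested 24 h. Next day, test compounds or DMSO are dispensed, followed by 18 h incubation at 37 °C, 5% CO2.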
A general note: A reporter such as luciferase makes a cellular process visible.

The next assay has as its target T2, TLR7 (Homo sapiens, UniProt Q9NYK1).
T2 construct: host or cells: HEK-Blue cells (human HEK) co-expressing TLR7 and an NF-kB/AP1-inducible SEAP reporter
T2 sequence (Q9NYK1 27-1049): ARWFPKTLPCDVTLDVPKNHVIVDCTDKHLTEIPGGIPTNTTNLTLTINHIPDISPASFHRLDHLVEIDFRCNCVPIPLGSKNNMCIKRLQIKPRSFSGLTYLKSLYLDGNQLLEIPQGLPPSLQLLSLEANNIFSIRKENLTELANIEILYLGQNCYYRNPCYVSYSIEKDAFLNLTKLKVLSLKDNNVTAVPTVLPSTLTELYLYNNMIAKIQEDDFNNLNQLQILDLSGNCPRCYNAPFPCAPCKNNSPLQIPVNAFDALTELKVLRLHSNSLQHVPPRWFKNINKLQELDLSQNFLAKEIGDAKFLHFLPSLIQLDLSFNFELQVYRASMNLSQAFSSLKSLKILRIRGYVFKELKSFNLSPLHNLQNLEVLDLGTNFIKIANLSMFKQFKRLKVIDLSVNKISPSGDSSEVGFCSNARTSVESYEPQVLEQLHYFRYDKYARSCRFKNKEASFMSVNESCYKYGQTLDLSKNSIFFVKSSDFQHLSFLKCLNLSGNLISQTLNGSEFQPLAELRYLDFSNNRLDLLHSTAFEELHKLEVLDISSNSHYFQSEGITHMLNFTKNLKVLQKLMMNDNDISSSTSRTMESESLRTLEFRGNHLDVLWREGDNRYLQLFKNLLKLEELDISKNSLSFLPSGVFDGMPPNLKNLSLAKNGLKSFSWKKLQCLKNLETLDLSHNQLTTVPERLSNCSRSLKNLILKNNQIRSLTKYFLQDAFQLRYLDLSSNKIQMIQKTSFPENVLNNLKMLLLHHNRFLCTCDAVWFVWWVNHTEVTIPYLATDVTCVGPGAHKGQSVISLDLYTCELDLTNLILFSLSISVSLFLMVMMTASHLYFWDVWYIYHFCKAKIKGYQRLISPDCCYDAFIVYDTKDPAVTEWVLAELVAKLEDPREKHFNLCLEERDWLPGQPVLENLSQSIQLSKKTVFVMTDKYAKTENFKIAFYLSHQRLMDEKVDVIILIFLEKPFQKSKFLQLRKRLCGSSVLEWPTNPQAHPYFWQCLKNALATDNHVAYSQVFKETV
In words: In vitro human TLR7 binding reporter assay (HEK-Blue, NF-kB/AP1-inducible SEAP). Type of assay: cell-based. The following applies: activity range symbols. The method in brief: as §1

As for `CCN(Cc1nc2c(N)nc3cc(-c4cc[nH]n4)ccc3c2[nH]1)S(=O)(=O)C(C)C` [Compound 459, N-{[4-amino-7-(1H-pyrazol-3-yl)-1H-imidazo[4,5-c]quinolin-2-yl]methyl}-N-ethylpropane-2-sulfonamide], the EC50 at TLR8 (activity range symbols) and on TLR7 was above 100 µM each time.
Take `CCCS(=O)(=O)N(CC)Cc1nc2c(N)nc3cc(-c4cc[nH]n4)ccc3c2[nH]1` [Compound 460, N-{[4-amino-7-(1H-pyrazol-3-yl)-1H-imidazo[4,5-c]quinolin-2-yl]methyl}-N-ethylpropane-1-sulfonamide]: the figures for the EC50 at TLR8 (numeric bounds) and at TLR7 were above 62 µM and above 100 µM, respectively.
As for `CCNCc1nc2c(N)nc3cc(-c4ccn[nH]4)ccc3c2n1CCO` [Compound 462, 2-[4-Amino-2-[(ethylamino)methyl]-7-(1H-pyrazol-5-yl)-1H-imidazo[4,5-c]quinolin-1-yl]ethan-1-ol], the EC50 on TLR8 (activity range symbols) and at TLR7 was above 100 µM each time.
As for `CCn1c(CN2CCCC2=O)nc2c(N)nc3cc(-c4cccs4)ccc3c21` [Compound 463, 1-{[4-amino-1-ethyl-7-(thiophen-2-yl)-1H-imidazo[4,5-c]quinolin-2-yl]methyl}pyrrolidin-2-one], the EC50 on TLR8 (activity range symbols) and on TLR7 was above 100 µM in each case.
Consider `CCNCc1nc2c(N)nc3cc(-c4ccn[nH]4)ccc3c2n1CC` [Compound 464, 1-ethyl-2-[(ethylamino)methyl]-7-(1H-pyrazol-5-yl)-1H-imidazo[4,5-c]quinolin-4-amine], for which the EC50 at TLR8 (activity range symbols) and on TLR7 was above 100 µM each time.
In the case of `CCn1c(CN2CCCC2=O)nc2c(N)nc3cc(-n4cccn4)ccc3c21` [Compound 465, 1-{[4-amino-1-ethyl-7-(1H-pyrazol-1-yl)-1H-imidazo[4,5-c]quinolin-2-yl]methyl}pyrrolidin-2-one], the EC50 on TLR8 (activity range symbols) and on TLR7 was above 100 µM each time.
`CCn1c(CN2CCCC2=O)nc2c(N)nc3cc(-c4ccn[nH]4)ccc3c21` [Compound 466, 1-{[4-amino-1-ethyl-7-(1H-pyrazol-5-yl)-1H-imidazo[4,5-c]quinolin-2-yl]methyl}pyrrolidin-2-one]: the EC50 on TLR8 (activity range symbols) and on TLR7 was above 100 µM in each case.
`CCNCc1nc2c(N)nc3cc(-n4cccn4)ccc3c2n1CC` [Compound 467, 1-ethyl-2-((ethylamino)methyl)-7-(1H-pyrazol-1-yl)-1H-imidazo[4,5-c]quinolin-4-amine]: the EC50 on TLR8 (activity range symbols) and on TLR7 was above 100 µM throughout.
`CCNCc1nc2c(N)nc3cc(-c4cccs4)ccc3c2n1CC` [Compound 468, 1-ethyl-2-[(ethylamino)methyl]-7-(thiophen-2-yl)-1H-imidazo[4,5-c]quinolin-4-amine]: the EC50 on TLR8 (activity range symbols) and at TLR7 was above 100 µM each time.
As to `Nc1nc2cc(-c3cccs3)ccc2c2c1nc(CN1CCCC1=O)n2CCO` [Compound 469, 1-{[4-amino-1-(2-hydroxyethyl)-7-(thiophen-2-yl)-1H-imidazo[4,5-c]quinolin-2-yl]methyl}pyrrolidin-2-one], the EC50 on TLR8 (activity range symbols) and on TLR7 was above 100 µM each time.
For `CCC(=O)N(CC)Cc1nc2c(N)nc3cc(-c4cccs4)ccc3c2n1CCO` [Compound 470, N-{[4-amino-1-(2-hydroxyethyl)-7-(thiophen-2-yl)-1H-imidazo[4,5-c]quinolin-2-yl]methyl}-N-ethylpropanamide], the EC50 on TLR8 (activity range symbols) and at TLR7 was above 100 µM each time.
As to `CCNCc1nc2c(N)nc3cc(-c4cccs4)ccc3c2n1CCO` [Compound 471, 2-{4-amino-2-[(ethylamino)methyl]-7-(thiophen-2-yl)-1H-imidazo[4,5-c]quinolin-1-yl}ethan-1-ol], the EC50 at TLR8 (activity range symbols) and at TLR7 was above 100 µM throughout.
With `CCN(Cc1nc2c(N)nc3cc(-c4cccs4)ccc3c2n1CC)C(C)=O` [Compound 472, N-{[4-amino-1-ethyl-7-(thiophen-2-yl)-1H-imidazo[4,5-c]quinolin-2-yl]methyl}-N-ethylacetamide], the EC50 on TLR8 (activity range symbols) and at TLR7 was above 100 µM in each case.
In the case of `CCC(=O)N(CC)Cc1nc2c(N)nc3cc(-c4ccn[nH]4)ccc3c2n1CC` [Compound 473, N-{[4-amino-1-ethyl-7-(1H-pyrazol-5-yl)-1H-imidazo[4,5-c]quinolin-2-yl]methyl}-N-ethylpropanamide], the EC50 at TLR8 (activity range symbols) and on TLR7 was above 100 µM each time.
Take `CCN(Cc1nc2c(N)nc3cc(-c4ccn[nH]4)ccc3c2n1CC)C(C)=O` [Compound 474, N-{[4-amino-1-ethyl-7-(1H-pyrazol-5-yl)-1H-imidazo[4,5-c]quinolin-2-yl]methyl}-N-ethylacetamide]: the EC50 at TLR8 (activity range symbols) and at TLR7 was above 100 µM each time.
Regarding `CCC(=O)N(CC)Cc1nc2c(N)nc3cc(-c4ccn[nH]4)ccc3c2n1CCO` [Compound 475, N-{[4-amino-1-(2-hydroxyethyl)-7-(1H-pyrazol-5-yl)-1H-imidazo[4,5-c]quinolin-2-yl]methyl}-N-ethylpropanamide], the EC50 on TLR8 (activity range symbols) and at TLR7 was above 100 µM in each case.
Regarding `CCN(Cc1nc2c(N)nc3cc(-n4cccn4)ccc3c2n1CCO)C(C)=O` [Compound 476, N-{[4-amino-1-(2-hydroxyethyl)-7-(1H-pyrazol-1-yl)-1H-imidazo[4,5-c]quinolin-2-yl]methyl}-N-ethylacetamide], the EC50 at TLR8 (activity range symbols) and on TLR7 was above 100 µM throughout.
As for `CCNCc1nc2c(N)nc3cc(-n4cccn4)ccc3c2n1CCO` [Compound 477, 2-[4-amino-2-[(ethylamino)methyl]-7-(1H-pyrazol-1-yl)-1H-imidazo[4,5-c]quinolin-l-yl]ethan-1-ol], the EC50 on TLR8 (activity range symbols) and on TLR7 was above 100 µM each time.
Regarding `CCC(=O)N(CC)Cc1nc2c(N)nc3cc(-n4cccn4)ccc3c2n1CCO` [Compound 478, N-{[4-amino-1-(2-hydroxyethyl)-7-(1H-pyrazol-1-yl)-1H-imidazo[4,5-c]quinolin-2-yl]methyl}-N-ethylpropanamide], the concentration for a half-maximal effect (EC50) at TLR8 (activity range symbols) and on TLR7 was above 100 µM throughout.
On to `CCN(Cc1nc2c(N)nc3cc(-n4cccn4)ccc3c2n1CC)C(C)=O` [Compound 479, N-{[4-amino-1-ethyl-7-(1H-pyrazol-1-yl)-1H-imidazo[4,5-c]quinolin-2-yl]methyl}-N-ethylacetamide], for which the EC50 on TLR8 (activity range symbols) and at TLR7 was above 100 µM throughout.
Take `CCC(=O)N(CC)Cc1nc2c(N)nc3cc(-c4cccs4)ccc3c2n1CC` [Compound 480, N-{[4-amino-1-ethyl-7-(thiophen-2-yl)-1H-imidazo[4,5-c]quinolin-2-yl]methyl}-N-ethylpropanamide]: the EC50 on TLR8 (activity range symbols) and at TLR7 was above 100 µM each time.
